From EPA's ToxValDB 9.5

Test system: Mus musculus
Conditions: oral
[1] = short-term, duration: 10 days, diet, M, C57BL/6, bone marrow: bone marrow: no. of CD19+ B-lymphoid cells + bone marrow: bone marrow: no. of early mature CD19+CD138-IgM+ B cells + bone …
[2] = short-term, duration: 10 days, diet, M, C57BL/6, serum AH50 + serum C3 + serum CH50
[3] = short-term, duration: 10 days, diet, M, C57BL/6, spleen: spleen: absolute weight + thymus: thymus: absolute weight
[4] = short-term, duration: 10 days, diet, M, C57BL/6, spleen: spleen: relative weight + thymus: thymus: relative weight
[5] = short-term, duration: 13 days, drinking water, F, C57BL/6, spleen: spleen CD8+ cells
[6] = short-term, duration: 14 days, gavage, M, BALB/c, relative mRNA expression of IL-1beta in spleen + thymus: apoptosis in thymus cells
[7] = short-term, duration: 14 days, gavage, M, BALB/c, relative mRNA expression of IL-1beta in thymus + spleen: apoptosis in spleen cells
[8] = short-term, duration: 14 days, gavage, M, Kunming, COX-2 in liver tissue
[9] = short-term, duration: 14 days, gavage, M, Kunming, CRP in liver tissue + liver: IL-6 levels
[10] = short-term, duration: 15 days, drinking water, F, C57BL/6, IgG antibody titer (SRBC) + IgM antibody titer (SRBC) + spleen: spleen: absolute weight + spleen: spleen: relative weight
[11] = short-term, duration: 15 days, drinking water, F, C57BL/6, IgM antibody titer (DNP)
[12] = short-term, duration: 15 days, drinking water, F, C57BL/6, IgM antibody titer (SRBC) + spleen: spleen: relative weight
[13] = short-term, duration: 15 days, drinking water, F, C57BL/6, spleen: spleen: absolute weight + spleen: spleen: relative weight + thymus: thymus: absolute weight + thymus: thymus: relative weight
[14] = short-term, duration: 15 days, drinking water, F, IgM antibody titer (SRBC)
[15] = short-term, duration: 21 days, drinking water, M, ICR, cytokine mRNA for IL-1 beta in spleen (relative to beta-actin) + expression of c-myc in thymus (relative to beta-actin) + mean body weight…
[16] = short-term, duration: 21 days, drinking water, M, ICR, cytokine mRNA for IL-6 in spleen (relative to beta-actin) + cytokine mRNA for TNF-alpha in spleen (relative to beta-actin) + expression of c…
[17] = short-term, duration: 28 days, gavage, M, BALB/c, testes: TNFa in testes
[18] = short-term, duration: 29 days, gavage, M, Crl:CD-1 (ICR) BR, IgM antibody titer (SRBC) + mean serum corticosterone + spleen: spleen: absolute weight + spleen: total number of splenocytes + thymus: …
[19] = short-term, duration: 29 days, gavage, M, Crl:CD-1 (ICR) BR, spleen: spleen: relative weight
[20] = subchronic, duration: 6 weeks, gavage, M, 129/SV, relative mRNA expression of TNF alpha/GAPDH in liver
[21] = subchronic, duration: 6 weeks, gavage, M, relative mRNA expression of TNF alpha/GAPDH in liver

In the case of `O=C([O-])C(F)(F)C(F)(F)C(F)(F)C(F)(F)C(F)(F)C(F)(F)C(F)(F)F.[NH4+]` [Ammonium perfluorooctanoate], the LOEL (short-term, duration: 10 days, diet, M, C57BL/6, blood serum: IL-6 levels + blood serum: IL-6 levels (+LPS in vivo) + blood serum: TNF-alpha levels (+LPS in vivo) + bone marrow: IL-6 levels…) was 0.02%, the NOEL (short-term, duration: 10 days, diet, M, C57BL/6, blood serum: TNF-alpha levels + bone marrow: IL-6 levels + spleen: IL-6 levels) was 0.02% and the LOEL (short-term, duration: 10 days, diet, M, C57BL/6, bone marrow: bone marrow cellularity + bone marrow: bone marrow: no. of Gr1+CD11b+ myeloid cells + bone marrow: bone marrow: no. of immature…) was 0.02%. For the same compound, the NOEL (short-term, duration: 10 days, diet, M, C57BL/6, bone marrow: bone marrow cellularity + bone marrow: bone marrow: no. of Gr1+CD11b+ myeloid cells + spleen: spleen cellularity + spleen: …) was 0.002%, the LOEL [1] was 0.002% and the NOEL [1] was 0.001%. For the same compound, the NOEL (short-term, duration: 10 days, diet, M, C57BL/6, intrahepatic immune cells: all leukocytes (CD45+) + intrahepatic immune cells: B cells (CD19+) + intrahepatic immune cells: CD138 (plasma …) was 0.002%, the LOEL (short-term, duration: 10 days, diet, M, C57BL/6, intrahepatic immune cells: all leukocytes (CD45+) + intrahepatic immune cells: B cells (CD19+) + intrahepatic immune cells: cytotoxic T …) was 0.002% and the NOEL (short-term, duration: 10 days, diet, M, C57BL/6, liver: IFN-gamma levels (+Con A in vivo) + liver: IL-4 levels (+Con A in vivo) + liver: TNF-alpha levels (+Con A in vivo)) was 0.002%. It also gave an LOEL (short-term, duration: 10 days, diet, M, C57BL/6, liver: IFN-gamma levels + liver: IL-4 levels + liver: IL-6 levels + liver: IL-6 levels (+Con A in vivo) + liver: TNF-alpha levels) of 0.002%, an LOEL [2] of 0.02% and an NOEL [2] of 0.01%. The NOEL (short-term, duration: 10 days, diet, M, C57BL/6, spleen: relative splenic DNA content) was 0.02%, the LOEL (short-term, duration: 10 days, diet, M, C57BL/6, spleen: spleen CD19+ cells + spleen: spleen CD3+ cells + spleen: spleen CD4+ cells + spleen: spleen CD8+ cells + spleen: spleen: absolute …) was 0.02% and the LOEL (short-term, duration: 10 days, diet, M, C57BL/6, spleen: spleen CD19+ cells + spleen: spleen CD4+ cells + spleen: spleen CD8+ cells + spleen: spleen cellularity + spleen: spleen NK1.1+ …) was 0.02%. The LOEL (short-term, duration: 10 days, diet, M, C57BL/6, spleen: spleen: absolute weight + spleen: spleen: relative weight + spleen: total splenic DNA content + thymus: relative thymic DNA content…) was 0.02%, the NOEL (short-term, duration: 10 days, diet, M, C57BL/6, spleen: spleen: absolute weight + thymocyte cell proliferation: G0/G1 phase 10 days recovery + thymocyte cell proliferation: G1/2 phase 2 …) was 0.02% and the LOEL [3] was 0.01%. It also gave an NOEL [3] of 0.003%, an LOEL [4] of 0.01% and an NOEL [4] of 0.005%. For the same compound, the NOEL (short-term, duration: 10 days, drinking water, F, C57BL/6, spleen B220+ cells + spleen: spleen CD4+ cells + spleen: spleen CD8+ cells + spleen: spleen cellularity + spleen: spleen DN (CD4-/CD8-) …) was 7.5 mg/kg-day, the NOEL (short-term, duration: 10 days, gavage, F, C57BL/6, IgG antibody titer (SRBC) + spleen: spleen: absolute weight + spleen: spleen: relative weight + thymus: thymus: absolute weight + thymus: …) was 30 mg/kg-day and the LOEL (short-term, duration: 10 days, gavage, F, C57BL/6, IgM antibody titer (SRBC) + spleen: spleen: absolute weight + spleen: spleen: relative weight + thymus: thymus: absolute weight + thymus: …) was 30 mg/kg-day. It also gave an NOEL (short-term, duration: 13 days, drinking water, F, C57BL/6, spleen: spleen B220+ cells + spleen: spleen CD4+ cells + spleen: spleen cellularity + spleen: spleen DP (CD4+/CD8+) cells + spleen: spleen …) of 7.5 mg/kg-day, an LOEL [5] of 7.5 mg/kg-day and an NOEL [5] of 3.75 mg/kg-day. For the same compound, the LOEL (short-term, duration: 13 days, drinking water, F, C57BL/6, spleen: spleen DN (CD4-/CD8-) cells) was 3.75 mg/kg-day, the LOEL (short-term, duration: 14 days, gavage, M, BALB/c, change in body weight + spleen: apoptosis in spleen cells + spleen: spleen: relative weight + thymus: thymus: relative weight) was 5 mg/kg-day and the NOEL (short-term, duration: 14 days, gavage, M, BALB/c, relative mRNA expression of IL-1beta in spleen + relative mRNA expression of IL-1beta in thymus) was 20 mg/kg-day. The LOEL [6] was 10 mg/kg-day, the NOEL [6] was 5 mg/kg-day and the LOEL [7] was 20 mg/kg-day. For the same compound, the NOEL [7] was 10 mg/kg-day, the LOEL [8] was 5 mg/kg-day and the NOEL [8] was 2.5 mg/kg-day. For the same compound, the LOEL [9] was 10 mg/kg-day, the NOEL [9] was 5 mg/kg-day and the LOEL (short-term, duration: 14 days, gavage, M, Kunming, liver: Cox-2 levels + liver: CRP levels + liver: IL-6 levels) was 10 mg/kg-day. It also gave an LOEL (short-term, duration: 14 days, gavage, M, Kunming, liver: IL-6 levels + liver: TNF-alpha levels) of 10 mg/kg-day, an LOEL [10] of 25 mg/L and an NOEL [10] of 12.5 mg/L. The LOEL [11] was 1.88 mg/kg-day, the NOEL [11] was 0.94 mg/kg-day and the LOEL [12] was 30 mg/kg-day. The NOEL [12] was 7.5 mg/kg-day, the NOEL (short-term, duration: 15 days, drinking water, F, C57BL/6, spleen: spleen B220+ cells + spleen: spleen cellularity + spleen: spleen DN (CD4-/CD8-) cells + spleen: spleen DP (CD4+/CD8+) cells) was 7.5 mg/kg-day and the LOEL (short-term, duration: 15 days, drinking water, F, C57BL/6, spleen: spleen CD4+ cells + spleen: spleen CD8+ cells + spleen: spleen NK 1.1 cells) was 3.75 mg/kg-day. It also gave an LOEL [13] of 100 mg/L, an NOEL [13] of 50 mg/L and an NOEL (short-term, duration: 15 days, drinking water, F, C57BL/6, spleen: spleen: absolute weight + spleen: spleen: relative weight + thymus: thymus: relative weight) of 200 mg/L. It also gave an LOEL (short-term, duration: 15 days, drinking water, F, C57BL/6, thymus: thymus: relative weight) of 7.5 mg/kg-day, an LOEL [14] of 30 mg/kg-day and an NOEL [14] of 7.5 mg/kg-day. It also gave an NOEL (short-term, duration: 15 days, drinking water, F, spleen: spleen: relative weight + thymus: thymus: relative weight) of 30 mg/kg-day, an NOEL (short-term, duration: 15 days, gavage, F, C57BL/6, IgG antibody titer (SRBC) + spleen: spleen: absolute weight + spleen: spleen: relative weight + thymus: thymus: absolute weight + thymus: …) of 30 mg/kg-day and an LOEL (short-term, duration: 15 days, gavage, F, C57BL/6, IgM antibody titer (SRBC) + spleen: spleen: absolute weight + spleen: spleen: relative weight + thymus: thymus: absolute weight + thymus: …) of 30 mg/kg-day. For the same compound, the NOEL (short-term, duration: 16 days, diet, M, C57BL/6, - HRBC IgG1: 160 reciprocal serum dilution + - HRBC IgG1: 320 reciprocal serum dilution + - HRBC IgG1: 40 reciprocal serum dilution + - HRBC…) was 0.02%, the LOEL (short-term, duration: 16 days, diet, M, C57BL/6, IgG1 antibody-producing cells (HRBC) + IgG2b antibody-producing cells (HRBC) + IgG3 antibody-producing cells (HRBC) + IgM antibody-producing…) was 200 mg/kg-day and the LOEL (short-term, duration: 16 days, diet, M, C57BL/6, IgG1 antibody-secreting cells (HRBC) + IgG1 antibody level (HRBC 1:160) + IgG1 antibody level (HRBC 1:20) + IgG1 antibody level (HRBC 1:80…) was 0.02%. It also gave an LOEL [15] of 17.6 mg/kg-day, an NOEL [15] of 2.64 mg/kg-day and an LOEL [16] of 47.2 mg/kg-day. The NOEL [16] was 17.6 mg/kg-day, the NOEL (short-term, duration: 21 days, drinking water, M, ICR, cytokine mRNA for IL-6 in thymus (relative to beta-actin) + cytokine mRNA for TNF-alpha in thymus (relative to beta-actin) + cytokine mRNA …) was 47.2 mg/kg-day and the LOEL (short-term, duration: 21 days, drinking water, M, ICR, spleen: spleen CD8+ cells + spleen: spleen DN (CD4-CD8-) cells + spleen: spleen DP (CD4+CD8+) cells) was 0.49 mg/kg-day. It also gave an LOEL (short-term, duration: 23 days, gavage, M, Crl:CD-1 (ICR) BR, IgM antibody titer (SRBC) + spleen: spleen: absolute weight + spleen: spleen: relative weight + spleen: total number of splenocytes + thymus…) of 30 mg/kg-day, an NOEL (short-term, duration: 23 days, gavage, M, Crl:CD-1 (ICR) BR, mean serum corticosterone + spleen: incidence of spleen hematopoiesis + spleen: spleen: relative weight) of 30 mg/kg-day and an LOEL [17] of 5 mg/kg-day. It also gave an NOEL [17] of 1.25 mg/kg-day, an LOEL [18] of 10 mg/kg-day and an NOEL [18] of 1 mg/kg-day. It also gave an LOEL [19] of 1 mg/kg-day, an NOEL [19] of 0.3 mg/kg-day and an LOEL [20] of 5 mg/kg-day. It also gave an NOEL [20] of 1 mg/kg-day, an LOEL [21] of 5 mg/kg-day and an NOEL [21] of 1 mg/kg-day.
